Measured values: patent US7968570B2, “Isoindolone compounds and their use as metabotropic glutamate receptor potentiators” (AstraZeneca AB, priority 2004, dated 2011)
Where two headings read alike, the source gives them in different places.

Target: T1, human mGluR2 receptor (Homo sapiens, UniProt Q14416)
T1 construct: expressed in transfected cells
Assay: [35S]-GTPγS binding assay of mGluR2 receptor activation
Assay type: biochemical
Protocol: A [^35S]-GTPγS binding assay was used to functionally assay mGluR2 receptor activation. The allosteric activator activity of compounds at the human mGluR2 receptor were measured using a [^35S]-GTPγS binding assay with membranes prepared from CHO cells which stably express the human mGluR2. The assay is based upon the principle that agonists bind to G-protein coupled receptors to stimulate GDP-GTP exchange at the G-protein. Since [^35S]-GTPγS is a non-hydrolyzable GTP analog, it can be used to provide an index of GDP-GTP exchange and, thus, receptor activation. The GTPγS binding assay therefore provides a quantitative measure of receptor activation.
Membranes were prepared from CHO cells stably transfected with human mGluR2. Membranes (30 μg protein) were incubated with test compound (3 nM to 300 μM) for 15 minutes at room temperature prior to the addition of 1 μM glutamate, and incubated for 30 min at 30° C. in 500 μl assay buffer (20 mM HEPES, 100 mM NaCl, 10 mM MgCl2), containing 30 μM GDP and 0.1 nM [^35S]-GTPγS (1250 Ci/mmol). Reactions were carried out in triplicate in 2 ml polypropylene 96-well plates. Reactions were terminated by vacuum filtration using a Packard 96-well harvester and Unifilter-96, GF/B filter microplates. The filter plates were washed 4×1.5 ml with ice-cold wash buffer (10 mM sodium phosphate buffer, pH 7.4). The filter plates were dried and 35 μl of scintillation fluid (Microscint 20) was added to each well. The amount of radioactivity bound was determined by counting plates on the Packard TopCount. Data was analyzed using GraphPad Prism, and EC50 and Emax values (relative to the maximum glutamate effect) were calculated using non-linear regression.

[1] = membranes from CHO cells stably expressing human mGluR2, 1 μM glutamate

T1 sequence (Q14416 19-872): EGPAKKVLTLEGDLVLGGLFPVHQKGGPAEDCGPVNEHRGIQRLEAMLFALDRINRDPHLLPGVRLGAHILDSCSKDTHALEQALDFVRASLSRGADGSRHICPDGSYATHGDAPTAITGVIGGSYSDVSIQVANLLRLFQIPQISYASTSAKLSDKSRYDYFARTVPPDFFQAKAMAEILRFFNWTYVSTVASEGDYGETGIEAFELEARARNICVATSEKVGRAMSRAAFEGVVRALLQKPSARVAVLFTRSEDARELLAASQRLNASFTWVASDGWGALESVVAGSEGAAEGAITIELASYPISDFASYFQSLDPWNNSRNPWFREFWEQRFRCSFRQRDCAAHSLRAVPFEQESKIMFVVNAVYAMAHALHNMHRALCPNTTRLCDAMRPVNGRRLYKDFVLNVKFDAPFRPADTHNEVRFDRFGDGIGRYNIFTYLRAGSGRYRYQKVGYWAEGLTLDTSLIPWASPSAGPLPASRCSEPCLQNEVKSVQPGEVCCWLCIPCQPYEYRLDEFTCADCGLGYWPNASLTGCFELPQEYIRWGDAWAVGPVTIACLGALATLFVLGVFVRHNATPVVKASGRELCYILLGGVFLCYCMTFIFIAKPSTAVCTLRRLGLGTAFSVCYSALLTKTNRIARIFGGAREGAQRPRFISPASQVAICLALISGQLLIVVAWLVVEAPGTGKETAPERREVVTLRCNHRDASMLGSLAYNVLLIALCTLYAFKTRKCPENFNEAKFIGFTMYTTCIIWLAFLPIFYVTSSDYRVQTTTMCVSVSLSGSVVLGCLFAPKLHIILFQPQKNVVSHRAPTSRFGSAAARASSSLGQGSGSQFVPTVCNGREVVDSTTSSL

| EC50 [1] [nM] | EC50 [nM] | Compound |
| --- | --- | --- |
| 8760 |  | O=C1c2ccc(N3CCOCC3)cc2CN1Cc1ccc(OC(F)(F)F)cc1 [Example 150, 5-Morpholin-4-yl-2-(4-trifluoromethoxy-benzyl)-2,3-dihydro-isoindol-1-one] |
| 630 |  | Cc1cc(CNCCc2ccccc2)cc2c1C(=O)N(Cc1ccc(OC(F)(F)F)cc1)C2 [Example 46, 7-Methyl-5-(phenethylamino-methyl)-2-(4-trifluoromethoxy-benzyl)-2,3-dihydro-isoindol-1-one] |
| 100 |  | Cc1cc(N2CCC(N(C)C)C2)cc2c1C(=O)N(Cc1ccc(Oc3ccccc3)cc1)C2 (centres unmarked) [Example 130, 5-(3-Dimethylamino-pyrrolidin-1-yl)-7-methyl-2-(4-phenoxy-benzyl)-2,3-dihydro-isoindol-1-one] |
|  | 80 | Cc1cc(CC2CCN(Cc3ccncc3)CC2)cc2c1C(=O)N(Cc1ccc(OC(F)(F)F)cc1)C2 [Example 170, 7-methyl-5-(1-pyridin-4-ylmethyl-piperidin-4-ylmethyl)-2-(4-trifluorometh-oxy-benzyl)-2,3-dihydro-isoindol-1-one] |
| 630 |  | Cc1cc(C(=O)N2CCN(Cc3ccccc3)CC2)cc2c1C(=O)N(Cc1ccc(OC(F)(F)F)cc1)C2 [Example 161, 5-(4-Benzyl-piperazine-1-carbonyl)-7-methyl-2-(4-trifluoromethoxy-benzyl)-2,3-dihydro-isoindol-1-one] |
| 4420 |  | CCCN1CCN(c2ccc3c(c2)CN(Cc2ccc(OC(F)(F)F)cc2)C3=O)CC1 [Example 146, 5-(4-Propyl-piperazin-1-yl)-2-(4-tri-fluoromethoxy-benzyl)-2,3-dihydro-isoindol-1-one] |
|  | 6400 | Cc1cc(-c2nnc(CN(C)C)o2)cc2c1C(=O)N(Cc1ccc(OC(F)(F)F)cc1)C2 [Example 175, 5-(5-Dimethylamino-methyl-[1,3,4]oxadiazol-2-yl)-7-methyl-2-(4-trifluorometh-oxy-benzyl)-2,3-dihydro-isoindol-1-one] |
| 1800 |  | COCCCNCc1cc(C)c2c(c1)CN(Cc1ccc(OC(F)(F)F)cc1)C2=O [Example 51, 5-[(3-Methoxy-propylamino)-methyl]-7-methyl-2-(4-trifluoromethoxy-benzyl)-2,3-dihydro-isoindol-1-one] |
| 6340 |  | COc1cc(N2CCN3CCCC3C2)cc2c1C(=O)N(Cc1ccc(Cl)cc1)C2 (centres unmarked) [Example 129] |
| 810 |  | Cc1cc(N2CCN3CCCC3C2)cc2c1C(=O)N(Cc1ccc(Cl)cc1)C2 (centres unmarked) [Example 118, 2-(4-Chlorobenzyl)-5-(hexahydropyrrolo [1,2-a]pyrazin-2-yl)-7-methyl-2,3-dihydroisoindol-1-one] |
| 130 |  | Cc1cc(-c2ccncc2)cc2c1C(=O)N(Cc1ccc(OC(F)(F)F)cc1)C2 [Example 96, 7-Methyl-5-pyridin-4-yl-2-(trifluoromethoxybenzyl)-2,3-dihydroisoindol-1-one] |
| 2800 |  | COc1cc(Br)cc2c1C(=O)N(Cc1ccc(Cl)cc1)C2 [Example 32, 5-Bromo-2-(4-chloro-benzyl)-7-methoxy-2,3-dihydro-isoindol-1-one] |
| 4040 |  | Cc1cc(N2CCN(Cc3ccncc3)CC2)cc2c1C(=O)N(Cc1ccc(N3CCN(Cc4ccncc4)CC3)cc1)C2 [Example 142, 7-Methyl-5-(4-pyridin-4-ylmethyl-piperazin-1-yl)-2-[4-(4-pyridin-4-ylmethyl-piperazin-1-yl)-benzyl]-2,3-dihydro-isoindol-1-one] |
| 360 |  | O=C1c2c(Cl)cc(-c3cccnc3)cc2CN1Cc1ccc(Cl)cc1 [Example 107, 7-Chloro-2-(4-chloro-benzyl)-5-pyridin-3-yl-2,3-dihydro-isoindol-1-one] |
| 1200 |  | Cc1cc(N2CCN(CCN(C)C)CC2)cc2c1C(=O)N(Cc1ccc(OC(F)(F)F)cc1)C2 [Example 140, 5-[4-(2-Dimethylamino-ethyl)-piperazin-1-yl]-7-methyl-2-(4-trifluoro-methoxy-benzyl)-2,3-dihydro-isoindol-1-one] |
| 5040 |  | COc1cc(N2CCCN(C)CC2)cc2c1C(=O)N(Cc1ccc(OC(F)(F)F)cc1)C2 [Example 128, 7-Methoxy-5-(4-methyl-[1,4]-diazepan-1-yl)-2-(4-triflouoromethoxy-benzyl)-2,3-dihydro-isoindol-1-one] |
|  | 520 | CCN1CCC(Cc2cc(C)c3c(c2)CN(Cc2ccc(OC(F)(F)F)cc2)C3=O)CC1 [Example 166, 5-(1-Ethyl-piperidin-4-ylmethyl)-7-methyl-2-(4-trifluorometh-oxy-benzyl)-2,3-dihydro-isoindol-1-one] |

| EC50 [1] [nM] | EC50 [nM] | Compound |
| --- | --- | --- |
| 100 |  | Cc1cc(OCc2ccccn2)cc2c1C(=O)N(Cc1ccc(OC(F)(F)F)cc1)C2 [Example 82, 7-Methyl-5-(pyridine-2-ylmethoxy)-2-(4-trifluoromethoxy-benzyl)-2,3-dihydro-isoindol-1-one] |
| 1210 |  | Cc1cc(C(=O)N2CCN(CCc3ccncc3)CC2)cc2c1C(=O)N(Cc1ccc(OC(F)(F)F)cc1)C2 [Example 163, 7-Methyl-5-[4-(2-pyridin-4-yl-ethyl)piperazine-1-carbonyl]-2-(4-trifluoromethoxy-benzyl)-2,3-dihydro-isoindol-1-one] |
| 50 |  | Cc1cc(CN2CCN(c3ccccn3)CC2)cc2c1C(=O)N(Cc1ccc(OC(F)(F)F)cc1)C2 [Example 43, 7-Methyl-5-(4-pyridin-2-yl-piperazin-1-ylmethyl)-2-(4-trifluoromethoxy-benzyl)-2,3-dihydro-isoindol-1-one] |
| 2520 |  | COc1cc(N2CCC(N(C)C)C2)cc2c1C(=O)N(Cc1ccc(OC(F)(F)F)cc1)C2 (centres unmarked) [Example 126, 5-(3- Dimethylaminopyrrolidin-1-yl)-7-methoxy-2-(4-trifluoromethoxy-benzyl)-2,3-dihydroisoindol-1-one] |
|  | 100 | Cc1cc(-c2nc(CN(C)C)no2)cc2c1C(=O)N(Cc1ccc(OC(F)(F)F)cc1)C2 [Example 180, 5-(3-Dimethylamino-methyl-[1,2,4]oxadiazol-5-yl)-7-methyl-2-(4-trifluorometh-oxy-benzyl)-2,3-dihydro-isoindol-1-one] |
| 70 |  | Cc1cc(CN(C)Cc2ccccc2)cc2c1C(=O)N(Cc1ccc(OC(F)(F)F)cc1)C2 [compound 35, 5-[(Benzylmethylamino)-methyl]-7-methyl-2-(4-trifluoromethoxy-benzyl)-2,3-dihydro-isoindol-1-one] |
|  | 740 | Cc1cc(CC2CCN(C(C)C)CC2)cc2c1C(=O)N(Cc1ccc(OC(F)(F)F)cc1)C2 [Example 174, 5-(1-isopropyl-piperidin-4-ylmethyl)-7-methyl-2-(4-trifluorometh-oxy-benzyl)-2,3-dihydro-isoindol-1-one] |
| 610 |  | CN1CCN(c2cc(Cl)c3c(c2)CN(Cc2ccc(OC(F)(F)F)cc2)C3=O)CC1 [Example 131, 7-Chloro-5-(4-methyl-piperizin-1-yl)-2-(4-trifluoromethoxy-benzyl)-2,3-dihydro-isoindol-1-one] |
| 400 |  | COc1cc(-c2ccncc2)cc2c1C(=O)N(Cc1ccc(OC(F)(F)F)cc1)C2 [Example 99, 7-Methoxy-5-pyridin-4-yl-2-(4-trifluoromethoxy-benzyl)-2,3-dihydroisoindol-1-one] |
| 20 |  | Cc1cc(CN2CCC(CCCc3ccc(-n4ccnc4)cc3)CC2)cc2c1C(=O)N(Cc1ccc(OC(F)(F)F)cc1)C2 [Example 55, 5-{4-[3-(4-Imidazol-1-yl-phenyl)-propyl]-piperidin-1-ylmethyl}-7-methyl-2-(4-trifluoromethoxy-benzyl)-2,3-dihydroisoindol-1-one] |
| 1230 |  | Cc1cc(N2CCN3CCCCC3C2)cc2c1C(=O)N(Cc1ccc(Cl)cc1)C2 (centres unmarked) [Example 121] |
| 6780 |  | O=C(CN1CCN(c2ccc3c(c2)CN(Cc2ccc(OC(F)(F)F)cc2)C3=O)CC1)N1CCCC1 [Example 148, 5-[4-(2-Oxo-2-pyrrolidin-1-yl-ethyl)-piperazin-1-yl]-2-(4-trifluoromethoxy-benzyl)-2,3-dihydro-isoindol-1-one] |
| 910 |  | Cc1cc(CNCc2cccnc2)cc2c1C(=O)N(Cc1ccc(OC(F)(F)F)cc1)C2 [Example 41, 7-Methyl-5-{[(pyridine-3-ylmethyl)-amino]-methyl}-2-(4-trifluoromethoxy-benzyl)-2,3-dihydro-isoindol-1-one] |
| 180 |  | Cc1cc(N2CCN3CCCC3C2)cc2c1C(=O)N(Cc1ccc(Oc3ccccc3)cc1)C2 (centres unmarked) [Example 116, 5-(Hexahydro-pyrrolo[1,2-a]pyrazin-2-yl)-7-methyl-2-(4-phenoxybenzyl)-2,3-dihydroisoindol-1-one] |
| 50 |  | Cc1cc(-c2cccnc2)cc2c1C(=O)N(Cc1ccc(OC(F)(F)F)cc1)C2 [Example 95, 7-Methyl-5-pyridin-3-yl-2-(trifluoromethoxybenzyl)-2,3-dihydroisoindol-1-one] |
| 140 |  | O=C1c2c(Cl)cc(Br)cc2CN1Cc1ccc(OC(F)(F)F)cc1 [Example 33, 5-Bromo-7-chloro-2-(4-trifluoromethoxy-benzyl)-2,3-dihydro-isoindol-1-one] |

| Compound | EC50 [1] [nM] | EC50 [nM] |
| --- | --- | --- |
| COc1cc(C2=CCNCC2)cc2c1C(=O)N(Cc1ccc(OC(F)(F)F)cc1)C2 [Example 92] | 1360 |  |
| Cc1ccc(CN2Cc3cc(C4=CCN(C)CC4)ccc3C2=O)cc1 [Example 89] | 9720 |  |
